Experimental data from PubChem BioAssay (NCI).
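Method: 48-hour compound exposure of cells in 96-well plates, five concentrations, linear interpolation of endpoints. GI50 = concentration required for 50% inhibition of growth. TGI marks complete inhibition of growth.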

Tests used:
Assay in all cases: NCI anticancer screen, dose series, 48 h
U251 CNS = system: U251 CNS
K-562 leukemia = system: K-562 leukemia
UACC-257 melanoma = system: UACC-257 melanoma
HT29 colon = system: HT29 colon
OVCAR-8 ovarian = system: OVCAR-8 ovarian
UACC-62 melanoma = system: UACC-62 melanoma
SK-MEL-5 melanoma = system: SK-MEL-5 melanoma
ACHN renal = system: ACHN renal
HCT-15 colon = system: HCT-15 colon
NCI-H226 lung = system: NCI-H226 lung
786-0 renal = system: 786-0 renal
SK-OV-3 ovarian = system: SK-OV-3 ovarian
MCF7 breast = system: MCF7 breast
RPMI-8226 leukemia = system: RPMI-8226 leukemia
T-47D breast = system: T-47D breast
OVCAR-5 ovarian = system: OVCAR-5 ovarian
MALME-3M melanoma = system: MALME-3M melanoma
PC-3 prostate = system: PC-3 prostate
SW-620 colon = system: SW-620 colon
HOP-62 NSCLC = system: HOP-62 NSCLC
SK-MEL-28 melanoma = system: SK-MEL-28 melanoma
HS 578T breast = system: HS 578T breast
EKVX NSCLC = system: EKVX NSCLC
UO-31 renal = system: UO-31 renal
HOP-92 NSCLC = system: HOP-92 NSCLC
TK-10 renal = system: TK-10 renal
BT-549 breast = system: BT-549 breast
SF-295 CNS = system: SF-295 CNS
MDA-MB-435 = system: MDA-MB-435
MDA-MB-231 breast = system: MDA-MB-231 breast
NCI-H23 lung = system: NCI-H23 lung
SK-MEL-2 melanoma = system: SK-MEL-2 melanoma
HL-60(TB) leukemia = system: HL-60(TB) leukemia
CAKI-1 renal = system: CAKI-1 renal
NCI-H460 lung = system: NCI-H460 lung
NCI-H522 lung = system: NCI-H522 lung
OVCAR-3 ovarian = system: OVCAR-3 ovarian
RXF 393 renal = system: RXF 393 renal
SR leukemia = system: SR leukemia
A498 renal = system: A498 renal
COLO 205 colon = system: COLO 205 colon
IGROV1 ovarian = system: IGROV1 ovarian
A549 NSCLC = system: A549 NSCLC
SNB-19 CNS = system: SNB-19 CNS
SF-268 CNS = system: SF-268 CNS
OVCAR-4 ovarian = system: OVCAR-4 ovarian
LOX IMVI melanoma = system: LOX IMVI melanoma
SN12C renal = system: SN12C renal
SF-539 CNS = system: SF-539 CNS
MOLT-4 leukemia = system: MOLT-4 leukemia
HCT-116 colon = system: HCT-116 colon
KM12 colon = system: KM12 colon
NCI/ADR-RES ovarian = system: NCI/ADR-RES ovarian
DU-145 prostate = system: DU-145 prostate
M14 melanoma = system: M14 melanoma
SNB-75 CNS = system: SNB-75 CNS
HCC-2998 colon = system: HCC-2998 colon
CCRF-CEM leukemia = system: CCRF-CEM leukemia

Work on `Cc1nc(SCC(=O)Nc2nc(-c3ccc(Cl)cc3)cs2)n(Nc2ccccc2)c1C` yielded a GI50 (U251 CNS) of 3.13 µM, a TGI (U251 CNS) of 13 µM and a GI50 (K-562 leukemia) of 0.12 µM. The TGI (K-562 leukemia) was > 100 µM, the GI50 (UACC-257 melanoma) was 3.07 µM and the TGI (UACC-257 melanoma) was 17 µM. It also gave a GI50 (HT29 colon) of 3.78 µM, a TGI (HT29 colon) of 15.4 µM and a GI50 (OVCAR-8 ovarian) of 2.71 µM. For the same compound, the TGI (OVCAR-8 ovarian) was 7.73 µM, the GI50 (UACC-62 melanoma) was 3.09 µM and the TGI (UACC-62 melanoma) was 16.1 µM. It also gave a GI50 (SK-MEL-5 melanoma) of 2.24 µM, a TGI (SK-MEL-5 melanoma) of 6.31 µM and a GI50 (ACHN renal) of 3.67 µM. The TGI (ACHN renal) was 14.1 µM, the GI50 (HCT-15 colon) was 5.74 µM and the TGI (HCT-15 colon) was 23.3 µM. It also gave a GI50 (NCI-H226 lung) of 3.37 µM, a TGI (NCI-H226 lung) of 18.8 µM and a GI50 (786-0 renal) of 3.6 µM. The TGI (786-0 renal) was 13.7 µM, the GI50 (SK-OV-3 ovarian) was 5.91 µM and the TGI (SK-OV-3 ovarian) was 19.8 µM. The GI50 (MCF7 breast) was 2.94 µM, the TGI (MCF7 breast) was 11.4 µM and the GI50 (RPMI-8226 leukemia) was 3.55 µM. For the same compound, the TGI (RPMI-8226 leukemia) was > 100 µM, the GI50 (T-47D breast) was 1.4 µM and the TGI (T-47D breast) was 5.24 µM. The GI50 (OVCAR-5 ovarian) was 2.65 µM, the TGI (OVCAR-5 ovarian) was 13.5 µM and the GI50 (MALME-3M melanoma) was 10.8 µM. The TGI (MALME-3M melanoma) was 37.6 µM, the GI50 (PC-3 prostate) was 2.34 µM and the TGI (PC-3 prostate) was 11 µM. It also gave a GI50 (SW-620 colon) of 5.5 µM, a TGI (SW-620 colon) of 22.9 µM and a GI50 (HOP-62 NSCLC) of 3.06 µM. For the same compound, the TGI (HOP-62 NSCLC) was 9.63 µM, the GI50 (SK-MEL-28 melanoma) was 10.1 µM and the TGI (SK-MEL-28 melanoma) was 24.6 µM. It also gave a GI50 (HS 578T breast) of 3.42 µM, a TGI (HS 578T breast) of 21.6 µM and a GI50 (EKVX NSCLC) of 1.84 µM. The TGI (EKVX NSCLC) was 12.2 µM, the GI50 (UO-31 renal) was 3.59 µM and the TGI (UO-31 renal) was 37.7 µM. For the same compound, the GI50 (HOP-92 NSCLC) was 1.61 µM, the TGI (HOP-92 NSCLC) was 6.89 µM and the GI50 (TK-10 renal) was 3.65 µM. For the same compound, the TGI (TK-10 renal) was 13.8 µM, the GI50 (BT-549 breast) was 7.02 µM and the TGI (BT-549 breast) was 20.9 µM. It also gave a GI50 (SF-295 CNS) of 2.29 µM, a TGI (SF-295 CNS) of 16.5 µM and a GI50 (MDA-MB-435) of 3.25 µM. It also gave a TGI (MDA-MB-435) of 21.8 µM, a GI50 (MDA-MB-231 breast) of 3.01 µM and a TGI (MDA-MB-231 breast) of 15.2 µM. It also gave a GI50 (NCI-H23 lung) of 1.85 µM, a TGI (NCI-H23 lung) of 6.02 µM and a GI50 (SK-MEL-2 melanoma) of 10.1 µM. For the same compound, the TGI (SK-MEL-2 melanoma) was 27.6 µM, the GI50 (HL-60(TB) leukemia) was 2.99 µM and the TGI (HL-60(TB) leukemia) was > 100 µM. For the same compound, the GI50 (CAKI-1 renal) was 3.93 µM, the TGI (CAKI-1 renal) was 22.6 µM and the GI50 (NCI-H460 lung) was 2.89 µM. For the same compound, the TGI (NCI-H460 lung) was 11 µM, the GI50 (NCI-H522 lung) was 2.54 µM and the TGI (NCI-H522 lung) was 13.7 µM. It also gave a GI50 (OVCAR-3 ovarian) of 3 µM, a TGI (OVCAR-3 ovarian) of 12.1 µM and a GI50 (RXF 393 renal) of 2.98 µM. For the same compound, the TGI (RXF 393 renal) was 7.33 µM, the GI50 (SR leukemia) was 3.81 µM and the TGI (SR leukemia) was > 100 µM. The GI50 (A498 renal) was 2.24 µM, the TGI (A498 renal) was 10.5 µM and the GI50 (COLO 205 colon) was 4.13 µM. The TGI (COLO 205 colon) was 14.5 µM, the GI50 (IGROV1 ovarian) was 3.36 µM and the TGI (IGROV1 ovarian) was 20.6 µM. For the same compound, the GI50 (A549 NSCLC) was 2.9 µM, the TGI (A549 NSCLC) was 11.6 µM and the GI50 (SNB-19 CNS) was 9.41 µM. For the same compound, the TGI (SNB-19 CNS) was 24.6 µM, the GI50 (SF-268 CNS) was 4.8 µM and the TGI (SF-268 CNS) was 20.1 µM. The GI50 (OVCAR-4 ovarian) was 4.6 µM, the TGI (OVCAR-4 ovarian) was 22.1 µM and the GI50 (LOX IMVI melanoma) was 1.78 µM. For the same compound, the TGI (LOX IMVI melanoma) was 3.72 µM, the GI50 (SN12C renal) was 2.38 µM and the TGI (SN12C renal) was 10.1 µM. For the same compound, the GI50 (SF-539 CNS) was 1.9 µM, the TGI (SF-539 CNS) was 4.27 µM and the GI50 (MOLT-4 leukemia) was 2.51 µM. The TGI (MOLT-4 leukemia) was 9.94 µM, the GI50 (HCT-116 colon) was 1.84 µM and the TGI (HCT-116 colon) was 4.62 µM. The GI50 (KM12 colon) was 2.95 µM, the TGI (KM12 colon) was 14 µM and the GI50 (NCI/ADR-RES ovarian) was 2.6 µM. It also gave a TGI (NCI/ADR-RES ovarian) of 7.18 µM, a GI50 (DU-145 prostate) of 5.64 µM and a TGI (DU-145 prostate) of 18.7 µM. For the same compound, the GI50 (M14 melanoma) was 3.69 µM, the TGI (M14 melanoma) was 16 µM and the GI50 (SNB-75 CNS) was 3.48 µM. The TGI (SNB-75 CNS) was 16.2 µM, the GI50 (HCC-2998 colon) was 10.6 µM and the TGI (HCC-2998 colon) was 29.5 µM. The GI50 (CCRF-CEM leukemia) was 5.49 µM and the TGI (CCRF-CEM leukemia) was > 100 µM.
